Test results: patent US8415469B2, “Compounds and methods for kinase modulation, and indications therefor” (Plexxikon Inc., priority 2005, dated 2013)

Legend:
Type in all cases: biochemical
B-Raf = target: T1, B-Raf (Homo sapiens, UniProt P15056); assay: AlphaScreen kinase assay, B-Raf; details: read-out: IC50, activity toward kinase B-Raf
T1 construct: purchased Upstate Biotechnology

B-Raf V600E = target: T2, B-Raf V600E (Homo sapiens, UniProt P15056, V600E); assay: AlphaScreen kinase assay, B-Raf V600E; details: read-out: IC50, activity toward kinase B-Raf V600E
T2 construct: P4254. pFastBacBD-CDC37 BRAF D437-K722-X, V600E; His6 with pFastBac HT leader (TEV site) (N); made in house; host or cells: Sf9 (baculovirus; chaperone CDC37 co-expressed)
T2 sequence (P15056 with tags, fused parts or gaps V600E): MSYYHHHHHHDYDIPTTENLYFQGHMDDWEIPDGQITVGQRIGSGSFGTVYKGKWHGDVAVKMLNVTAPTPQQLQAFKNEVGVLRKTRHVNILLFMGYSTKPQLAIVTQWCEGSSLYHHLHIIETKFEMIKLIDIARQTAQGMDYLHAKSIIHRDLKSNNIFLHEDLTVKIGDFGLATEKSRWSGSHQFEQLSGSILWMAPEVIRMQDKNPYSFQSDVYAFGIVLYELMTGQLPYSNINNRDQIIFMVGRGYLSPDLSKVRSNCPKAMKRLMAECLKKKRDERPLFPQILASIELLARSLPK

Fms = target: T3, Fms (Homo sapiens, UniProt P07333); assay: AlphaScreen kinase assay, Fms; details: read-out: IC50, activity toward kinase Fms
T3 construct: purchased Upstate Biotechnology
T3 sequence (P07333 20-972): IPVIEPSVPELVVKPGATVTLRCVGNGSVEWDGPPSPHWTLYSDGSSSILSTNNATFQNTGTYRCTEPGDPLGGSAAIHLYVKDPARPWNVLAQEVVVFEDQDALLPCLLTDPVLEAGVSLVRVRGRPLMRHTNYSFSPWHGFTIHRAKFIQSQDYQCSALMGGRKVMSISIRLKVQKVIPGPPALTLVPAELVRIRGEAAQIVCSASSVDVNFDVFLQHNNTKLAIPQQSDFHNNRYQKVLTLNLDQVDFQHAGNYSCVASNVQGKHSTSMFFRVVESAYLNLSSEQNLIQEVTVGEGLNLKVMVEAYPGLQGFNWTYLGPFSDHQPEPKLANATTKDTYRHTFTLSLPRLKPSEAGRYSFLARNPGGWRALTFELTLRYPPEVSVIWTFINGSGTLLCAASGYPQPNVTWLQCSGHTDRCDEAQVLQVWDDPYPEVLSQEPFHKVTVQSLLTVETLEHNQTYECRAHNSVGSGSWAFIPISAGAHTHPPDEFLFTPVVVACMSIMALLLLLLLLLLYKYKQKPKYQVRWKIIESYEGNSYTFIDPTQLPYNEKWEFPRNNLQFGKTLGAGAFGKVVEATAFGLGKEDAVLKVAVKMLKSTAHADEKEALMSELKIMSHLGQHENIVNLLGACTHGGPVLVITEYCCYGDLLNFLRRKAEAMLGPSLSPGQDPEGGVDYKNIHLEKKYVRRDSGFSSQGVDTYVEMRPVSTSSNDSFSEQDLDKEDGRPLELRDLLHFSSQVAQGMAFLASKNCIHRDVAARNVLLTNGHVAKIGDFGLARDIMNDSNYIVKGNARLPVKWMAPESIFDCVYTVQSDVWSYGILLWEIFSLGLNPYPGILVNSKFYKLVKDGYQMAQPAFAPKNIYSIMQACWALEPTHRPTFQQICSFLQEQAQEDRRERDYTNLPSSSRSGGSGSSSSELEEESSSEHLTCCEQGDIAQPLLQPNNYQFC

Jnk1 = target: T4, Jnk1 (Homo sapiens, UniProt P45983); assay: AlphaScreen kinase assay, Jnk1; details: read-out: IC50, activity toward kinase Jnk1
T4 construct: purchased Upstate Biotechnology
T4 sequence (P45983 whole entry): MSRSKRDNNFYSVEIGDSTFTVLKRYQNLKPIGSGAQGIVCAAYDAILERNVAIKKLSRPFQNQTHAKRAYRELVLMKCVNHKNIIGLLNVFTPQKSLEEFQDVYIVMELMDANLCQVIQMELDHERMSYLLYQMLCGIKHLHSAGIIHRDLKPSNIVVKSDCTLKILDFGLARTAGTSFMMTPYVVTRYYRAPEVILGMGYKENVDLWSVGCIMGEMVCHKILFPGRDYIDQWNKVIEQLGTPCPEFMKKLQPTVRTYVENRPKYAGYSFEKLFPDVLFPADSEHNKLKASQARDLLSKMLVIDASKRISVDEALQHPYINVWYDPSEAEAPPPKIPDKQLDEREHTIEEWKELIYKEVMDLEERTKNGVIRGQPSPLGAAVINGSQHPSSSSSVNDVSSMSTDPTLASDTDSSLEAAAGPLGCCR

Jnk2 = target: T5, Jnk2 (Homo sapiens, UniProt P45984); assay: AlphaScreen kinase assay, Jnk2; details: read-out: IC50, activity toward kinase Jnk2
T5 construct: purchased Roche Protein Expression Group (Indianapolis, IN)
T5 sequence (P45984 whole entry): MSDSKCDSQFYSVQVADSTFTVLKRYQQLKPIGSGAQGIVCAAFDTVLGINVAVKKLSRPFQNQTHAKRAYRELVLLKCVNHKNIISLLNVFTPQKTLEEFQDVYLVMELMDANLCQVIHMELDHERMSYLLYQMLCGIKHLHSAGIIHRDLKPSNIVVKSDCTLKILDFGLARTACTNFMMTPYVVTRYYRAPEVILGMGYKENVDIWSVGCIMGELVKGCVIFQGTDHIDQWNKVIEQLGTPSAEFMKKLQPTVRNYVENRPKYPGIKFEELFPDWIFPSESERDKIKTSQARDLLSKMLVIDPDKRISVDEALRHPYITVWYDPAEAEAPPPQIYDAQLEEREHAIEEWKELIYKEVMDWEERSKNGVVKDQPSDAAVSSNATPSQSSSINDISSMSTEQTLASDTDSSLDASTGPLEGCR
Source text: AlphaScreen assay was used to screen additional kinases. The assay is similarly dependent on the phosphorylation of a peptide substrate. In this assay, an antibody that recognizes phosphorylated substrate is bound to an acceptor bead. The peptide substrate is attached to biotin, which binds to a donor head that contains streptavidin. Thus phosphorylated substrate is bound by antibody and streptavidin, bringing the donor and acceptor heads into close proximity when kinase is not inhibited. The donor produces singlet oxygen which results in emission from the acceptor when they are in close proximity. Conversely, when kinase is inhibited, the donor and acceptor beads are not associated and the emission from the acceptor is reduced.
AlphaScreen assays were done using compounds dissolved in DMSO to a concentration of 20 mM. The compounds were diluted accordingly to the desired final concentrations in each sample well, using 1:3 serial dilution for a total of 8 concentration points.

Jnk3 = target: T6, Jnk3 (Homo sapiens, UniProt P53779); assay: AlphaScreen kinase assay, Jnk3; details: read-out: IC50, activity toward kinase Jnk3
T6 construct: purchased Upstate Biotechnology
T6 sequence (P53779 whole entry): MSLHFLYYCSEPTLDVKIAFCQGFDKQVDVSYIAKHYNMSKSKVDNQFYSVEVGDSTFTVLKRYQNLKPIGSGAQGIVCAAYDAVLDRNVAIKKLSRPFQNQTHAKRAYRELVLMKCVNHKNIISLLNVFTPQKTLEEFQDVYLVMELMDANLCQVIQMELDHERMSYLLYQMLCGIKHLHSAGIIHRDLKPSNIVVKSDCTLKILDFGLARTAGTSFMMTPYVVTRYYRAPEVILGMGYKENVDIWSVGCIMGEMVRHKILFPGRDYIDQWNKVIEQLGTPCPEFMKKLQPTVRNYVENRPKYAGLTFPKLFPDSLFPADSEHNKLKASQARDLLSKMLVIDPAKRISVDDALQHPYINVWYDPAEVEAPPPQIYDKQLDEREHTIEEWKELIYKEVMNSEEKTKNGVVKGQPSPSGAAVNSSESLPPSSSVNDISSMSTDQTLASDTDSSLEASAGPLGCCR

Kit = target: T7, Kit (Homo sapiens, UniProt P10721); assay: AlphaScreen kinase assay, Kit; details: read-out: IC50, activity toward kinase Kit
T7 construct: P1332.N6 BI PTP KIT M552-K948-X COD; His6 (N); made in house; host or cells: E. coli (PTP1B co-expressed)
T7 sequence (P10721 with tags, fused parts or gaps): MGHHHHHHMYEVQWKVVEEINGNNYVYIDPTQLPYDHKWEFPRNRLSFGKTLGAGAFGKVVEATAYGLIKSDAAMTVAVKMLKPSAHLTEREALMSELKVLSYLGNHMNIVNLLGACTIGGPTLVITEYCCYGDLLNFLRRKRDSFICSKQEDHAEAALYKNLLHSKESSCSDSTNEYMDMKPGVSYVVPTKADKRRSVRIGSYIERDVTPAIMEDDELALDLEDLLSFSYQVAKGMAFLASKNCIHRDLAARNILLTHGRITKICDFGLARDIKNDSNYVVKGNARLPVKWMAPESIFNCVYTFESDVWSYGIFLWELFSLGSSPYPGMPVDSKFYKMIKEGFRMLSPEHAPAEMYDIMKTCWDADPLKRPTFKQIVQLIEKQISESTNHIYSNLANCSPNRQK

Flt1 = target: T8, Flt1 (Homo sapiens, UniProt P17948); assay: AlphaScreen kinase assay, Flt1; details: read-out: IC50, activity toward kinase Flt1
T8 construct: P1826.pETN6 BI-PTP FLT1 M799-D1165-X WT; His6 (N); made in house; host or cells: E. coli (PTP1B co-expressed)
T8 sequence (P17948 with tags, fused parts or gaps): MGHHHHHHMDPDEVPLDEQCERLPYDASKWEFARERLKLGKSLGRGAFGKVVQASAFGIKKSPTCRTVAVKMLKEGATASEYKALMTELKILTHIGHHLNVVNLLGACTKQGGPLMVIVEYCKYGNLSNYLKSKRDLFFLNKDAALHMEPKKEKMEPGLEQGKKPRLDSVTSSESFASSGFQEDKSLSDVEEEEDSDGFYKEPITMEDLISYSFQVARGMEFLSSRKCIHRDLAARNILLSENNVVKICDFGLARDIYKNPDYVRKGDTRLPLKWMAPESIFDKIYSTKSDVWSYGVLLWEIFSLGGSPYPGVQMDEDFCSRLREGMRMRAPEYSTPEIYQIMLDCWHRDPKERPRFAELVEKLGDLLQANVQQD

Measured: IC50

T1 sequence (P15056 whole entry): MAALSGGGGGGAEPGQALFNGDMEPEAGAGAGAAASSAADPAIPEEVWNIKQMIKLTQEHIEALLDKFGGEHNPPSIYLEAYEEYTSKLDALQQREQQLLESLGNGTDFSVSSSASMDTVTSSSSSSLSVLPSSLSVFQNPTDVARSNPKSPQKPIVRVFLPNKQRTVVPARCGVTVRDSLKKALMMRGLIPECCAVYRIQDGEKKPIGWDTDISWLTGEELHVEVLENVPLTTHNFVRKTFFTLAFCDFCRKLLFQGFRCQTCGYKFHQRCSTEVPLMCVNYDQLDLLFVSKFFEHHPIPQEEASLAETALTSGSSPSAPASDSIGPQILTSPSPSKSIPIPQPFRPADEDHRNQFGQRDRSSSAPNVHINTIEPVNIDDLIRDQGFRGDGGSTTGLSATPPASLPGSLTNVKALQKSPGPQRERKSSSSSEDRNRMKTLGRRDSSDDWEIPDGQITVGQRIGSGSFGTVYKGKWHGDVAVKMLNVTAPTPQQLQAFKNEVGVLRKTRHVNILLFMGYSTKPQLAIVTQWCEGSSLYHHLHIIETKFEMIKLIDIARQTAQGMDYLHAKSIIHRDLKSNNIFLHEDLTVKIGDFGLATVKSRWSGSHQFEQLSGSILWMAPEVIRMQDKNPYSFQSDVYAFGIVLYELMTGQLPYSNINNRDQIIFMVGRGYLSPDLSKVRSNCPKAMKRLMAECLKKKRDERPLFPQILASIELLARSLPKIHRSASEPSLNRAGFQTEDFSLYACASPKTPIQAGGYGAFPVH

Cc1cc(NC(=O)Nc2cccc(C(=O)c3c[nH]c4ncccc34)c2)on1 [Compound P-1765, 1-(3-Methyl-isoxazol-5-yl)-3-[3-(1H-pyrrolo[2,3-b]pyridine-3-carbonyl)-phenyl]-urea]
not listed: Kit | Flt1
≤ 10 µM: all other assays above

Cc1cccc(NC(=O)Nc2cccc(C(=O)c3c[nH]c4ncc(-c5cccnc5)cc34)c2)c1 [Compound P-1757, 1-[3-(5-Pyridin-3-yl-1H-pyrrolo[2,3-b]pyridine-3-carbonyl)-phenyl]-3-m-tolyl-urea]
not listed: Kit | Flt1
≤ 10 µM: all other assays above

Cc1noc(NC(=O)Nc2cccc(C(=O)c3c[nH]c4ncc(Cl)cc34)c2)c1C [Compound P-1776, 1-[3-(5-Chloro-1H-pyrrolo[2,3-b]pyridine-3-carbonyl)-phenyl]-3-(3,4-dimethyl-isoxazol-5-yl)-urea]
not listed: Flt1
≤ 10 µM: all other assays above

Cc1ccccc1NC(=O)Nc1cccc(C(=O)c2c[nH]c3ncc(-c4cccnc4)cc23)c1 [Compound P-1759, 1-[3-(5-Pyridin-3-yl-1H-pyrrolo[2,3-b]pyridine-3-carbonyl)-phenyl]-3-o-tolyl-urea]
not listed: Kit | Flt1
≤ 10 µM: all other assays above

O=C(Nc1ccc(Cl)cc1)Nc1cccc(C(=O)c2c[nH]c3ncc(-c4cccnc4)cc23)c1 [Compound P-1750, 1-(4-Chloro-phenyl)-3-[3-(5-pyridin-3-yl-1H-pyrrolo[2,3-b]pyridine-3-carbonyl)-phenyl]-urea]
not listed: Kit | Flt1
≤ 10 µM: all other assays above

COc1cccc(NC(=O)Nc2cccc(C(=O)c3c[nH]c4ncc(-c5cccnc5)cc34)c2)c1 [Compound P-1749, 1-(3-Methoxy-phenyl)-3-[3-(5-pyridin-3-yl-1H-pyrrolo[2,3-b]pyridine-3-carbonyl)-phenyl]-urea]
not listed: Kit | Flt1
≤ 10 µM: all other assays above

CCCN(CCC)C(=O)n1ccc2c(C(=O)c3c[nH]c4ncc(-c5cccnc5)cc34)cccc21 [Compound P-1722, 4-(5-Pyridin-3-yl-1H-pyrrolo[2,3-b]pyridine-3-carbonyl)-indole-1-carboxylic acid dipropylamide]
not listed: Kit | Flt1
≤ 10 µM: all other assays above

CCCCCNC(=O)n1ccc2c(C(=O)c3c[nH]c4ncc(-c5cccnc5)cc34)cccc21 [Compound P-1702, 4-(5-Pyridin-3-yl-1H-pyrrolo[2,3-b]pyridine-3-carbonyl)-indole-1-carboxylic acid pentylamide]
not listed: Kit | Flt1
≤ 10 µM: all other assays above

O=C(Nc1cccc(C(=O)c2c[nH]c3ncccc23)c1)Nc1ccon1 [Compound P-1764, 1-Isoxazol-3-yl-3-[3-(1H-pyrrolo[2,3-b]pyridine-3-carbonyl)-phenyl]-urea]
not listed: Kit | Flt1
≤ 10 µM: all other assays above

Cc1ccc(NC(=O)Nc2cccc(C(=O)c3c[nH]c4ncc(-c5cccnc5)cc34)c2)cc1 [Compound P-1756, 1-[3-(5-Pyridin-3-yl-1H-pyrrolo[2,3-b]pyridine-3-carbonyl)-phenyl]-3-p-tolyl-urea]
not listed: Kit | Flt1
≤ 10 µM: all other assays above

Cc1noc(NC(=O)Nc2cccc(C(=O)c3c[nH]c4ncccc34)c2)c1C [Compound P-1767]
not listed: Flt1
≤ 10 µM: all other assays above

O=C(Nc1cccc(C(=O)c2c[nH]c3ncc(-c4cccnc4)cc23)c1)Nc1ccc(F)c(F)c1 [Compound P-1724, 1-(3,4-Difluoro-phenyl)-3-[3-(5-pyridin-3-yl-1H-pyrrolo[2,3-b]pyridine-3-carbonyl)-phenyl]-urea]
not listed: Kit | Flt1
≤ 10 µM: all other assays above

CCCCNC(=O)Nc1cccc(C(=O)c2c[nH]c3ncc(-c4cccnc4)cc23)c1C [Compound P-1742, 1-Butyl-3-[2-methyl-3-(5-pyridin-3-yl-1H-pyrrolo[2,3-b]pyridine-3-carbonyl)-phenyl]-urea]
not listed: Kit | Flt1
≤ 10 µM: all other assays above

NC(=O)Nc1ccc(F)c(C(=O)c2c[nH]c3ncc(Br)cc23)c1 [Compound P-1570, [3-(5-Bromo-1H-pyrrolo[2,3-b]pyridine-3-carbonyl)-4-fluoro-phenyl]-urea]
not listed: Kit
≤ 10 µM: all other assays above

CCCCNC(=O)Nc1cccc(C(=O)c2c[nH]c3ncc(-c4cccnc4)cc23)c1Cl [Compound P-1828, 1-Butyl-3-[2-chloro-3-(5-pyridin-3-yl-1H-pyrrolo[2,3-b]pyridine-3-carbonyl)-phenyl]-urea]
not listed: Kit | Flt1
≤ 10 µM: all other assays above

CCCS(=O)(=O)Nc1ccc(F)c(C(=O)c2c[nH]c3ncc(-c4ccc(C(=O)N(C)C)c(C)c4)cc23)c1F [Compound P-2007]
not listed: Kit | Flt1
≤ 10 µM: all other assays above

O=C(Nc1ccc(F)cc1)Nc1cccc(C(=O)c2c[nH]c3ncc(-c4cccnc4)cc23)c1 [Compound P-1748, 1-(4-Fluoro-phenyl)-3-[3-(5-pyridin-3-yl-1H-pyrrolo[2,3-b]pyridine-3-carbonyl)-phenyl]-urea]
not listed: Kit | Flt1
≤ 10 µM: all other assays above

Cc1ccccc1NC(=O)Nc1cccc(C(=O)c2c[nH]c3ncccc23)c1 [Compound P-1720, 1-[3-(1H-Pyrrolo[2,3-b]pyridine-3-carbonyl)-phenyl]-3-o-tolyl-urea]
not listed: Flt1
≤ 10 µM: all other assays above

CCCCNC(=O)n1ccc2c(C(=O)c3c[nH]c4ncc(Br)cc34)cccc21 [Compound P-1687, 4-(5-Bromo-1H-pyrrolo[2,3-b]pyridine-3-carbonyl)-indole-1-carboxylic acid butylamide]
not listed: Kit | Flt1
≤ 10 µM: all other assays above
